Reference: patent publication US9745335B2 (Blirt S.A., priority 2012, dated 2017)

How the values were obtained:
LLC-PK1 cells = experiment: cytotoxic activity against mammalian cells in tissue culture (MTT); assay type: cell-based, pig
CCRF-CEM cells = experiment: as above; assay type: cell-based, human
HepG2 cells = experiment: as above; assay type: cell-based, human
[1] = test system: Trichoderma viride LOCK E159; experiment: antifungal activity in vitro, broader spectrum; assay type: cell-based
Method: (§1) For the determination of antifungal activity in vitro we used method of serial dilution in buffered medium RPMI 1640, pH 7.0, in a 96-wells microplates, according to the standard procedure (National Committee for Clinical Laboratory Standards. Reference method for broth dilution antifungal susceptibility testing of yeast, approved standard, 2nd ed. M27-A2 vol. 22 Wayne, Pa., 2002). The optical density of cells suspension was measured using a microplates reader (Victor^3, Perkin-Elmer) at the wavelength λ=531 nm (A531). On the basis of obtained results the diagrams of relation between A531 values and concentration of examined compound were made.
(§2) Obtained results are presented below in tables 2A and 2B.

Candida arborea KKP 319 = experiment: antifungal activity in vitro, broader spectrum; assay type: cell-based
Method: as §1, §2

[2] = test system: Candida quilliermondii DSM 11947; experiment: antifungal activity in vitro, broader spectrum; assay type: cell-based
Method: as §1, §2

[3] = test system: Candida lipolytica KKP 322; experiment: antifungal activity in vitro, broader spectrum; assay type: cell-based
Method: as §1, §2

[4] = test system: Candida dubliniensis CBS 7987; experiment: antifungal activity in vitro, broader spectrum; assay type: cell-based
Method: as §1, §2

[5] = test system: Candida stellatoidea CBS 1905; experiment: antifungal activity in vitro, broader spectrum; assay type: cell-based
Method: as §1, §2

[6] = test system: Candida parapsilosis DSM 5784; experiment: antifungal activity in vitro, broader spectrum; assay type: cell-based
Method: as §1, §2

Candida albicans SC 5314 = experiment: antifungal activity in vitro, broader spectrum; assay type: cell-based
Method: as §1, §2

[7] = test system: Candida pseudotropicalis KKP 324; experiment: antifungal activity in vitro, broader spectrum; assay type: cell-based
Method: as §1, §2

[8] = test system: Aspergillus niger LOCK E201; experiment: antifungal activity in vitro, broader spectrum; assay type: cell-based
Method: as §1, §2

[9] = test system: Candida albicans strain STY7 (CaCdr1p); experiment: antifungal activity against MDR fungal strains and parents; assay type: cell-based; settings: C. albicans STY7 (CaCdr1p), 5674 derivative, deletion of CDR2
Method: as §1

[10] = test system: Candida albicans strain 5674 (CaCdr1p, CaCdr2p); experiment: as above; assay type: cell-based; settings: C. albicans 5674 (CaCdr1p, CaCdr2p)
Method: as §1

[11] = test system: Candida albicans clinical strain F5 (CaMdr1p); experiment: as above; assay type: cell-based; settings: C. albicans F5 (CaMdr1p), fluconazole-resistant
Method: as §1

[12] = test system: Candida albicans clinical strain Gu5 (CaCdr1p, CaCdr2p); experiment: as above; assay type: cell-based; settings: C. albicans Gu5 (CaCdr1p, CaCdr2p), fluconazole-resistant
Method: as §1

[13] = test system: Candida albicans clinical strain B3; experiment: as above; assay type: cell-based; settings: C. albicans B3, fluconazole sensitive, parent strain for B4
Method: as §1

[14] = test system: Candida albicans strain STY31; experiment: as above; assay type: cell-based; settings: C. albicans STY31, 5674 derivative, deletion of CDR1 and CDR2
Method: as §1

[15] = test system: Candida albicans clinical strain Gu4; experiment: as above; assay type: cell-based; settings: C. albicans Gu4, fluconazole sensitive, parent strain for Gu5
Method: as §1

[16] = test system: Candida albicans clinical strain B4 (CaMdr1p); experiment: as above; assay type: cell-based; settings: C. albicans B4 (CaMdr1p), fluconazole-resistant
Method: as §1

[17] = test system: Candida albicans clinical strain F2; experiment: as above; assay type: cell-based; settings: C. albicans F2, fluconazole sensitive, parent strain for F5
Method: as §1

[18] = test system: Candida tropicalis KKP 334; experiment: antifungal activity in vitro, serial dilution in RPMI 1640; assay type: cell-based
Method in brief: (§3)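 Standard yeast broth dilution (M27-A2) in pH 7.0 buffered RPMI 1640. A531 of cell suspensions recorded and related graphically to compound concentration.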

[19] = test system: Candida lusitaniae DSM 70102; experiment: as above; assay type: cell-based
Method in brief: as §3

Candida krusei DSM 6128 = experiment: as above; assay type: cell-based
Method in brief: as §3

[20] = test system: Saccharomyces cerevisiae ATCC 9763; experiment: as above; assay type: cell-based; settings: RPMI 1640, pH 7.0; for Antifungal activity IC50: Saccharomyces cerevisiae ATCC 9763 (first head over MIC and IC50); for Antifungal activity MIC: Saccharomyces cerevisiae ATCC 9763
Method in brief: as §3

[21] = test system: Candida glabrata DSM 11226; experiment: as above; assay type: cell-based
Method in brief: as §3

[22] = test system: Candida albicans ATCC 10231; experiment: as above; assay type: cell-based
Method in brief: as §3

Human erythrocytes = experiment: hemotoxicity determination (hemolytic activity); assay type: cell-based
Method in brief: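 Human erythrocytes (2×10^7/ml in saline) were incubated with serially diluted compound for 30 min at 37 °C and then centrifuged. Released haemoglobin was read at A540 against a 0.1% Triton X-100 full-lysis control. EH50 is the interpolated concentration giving 50% of the control A540.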

## N-(L-N,N-diethylphenylalanyl)amphotericin B [Compound A42]
LLC-PK1 cells
  IC50 (cytotoxic activity): >100 µg/mL
CCRF-CEM cells
  IC50 (cytotoxic activity): >100 µg/mL
HepG2 cells
  IC50 (cytotoxic activity): >100 µg/mL
[1]
  Antifungal activity MIC: 2 µg/mL
Candida arborea KKP 319
  Antifungal activity MIC: 4 µg/mL
[2]
  Antifungal activity MIC: 4 µg/mL
[3]
  Antifungal activity MIC: 4 µg/mL
[4]
  Antifungal activity MIC: 2 µg/mL
[5]
  Antifungal activity MIC: 4 µg/mL
[6]
  Antifungal activity MIC: 4 µg/mL
Candida albicans SC 5314
  Antifungal activity MIC: 4 µg/mL
[7]
  Antifungal activity MIC: 4 µg/mL
[8]
  Antifungal activity MIC: 1 µg/mL
[9]
  Antifungal activity MIC: 4 µg/mL
[10]
  Antifungal activity MIC: 4 µg/mL
[11]
  Antifungal activity MIC: 2 µg/mL
[12]
  Antifungal activity MIC: 4 µg/mL
[13]
  Antifungal activity MIC: 2 µg/mL
[14]
  Antifungal activity MIC: 4 µg/mL
[15]
  Antifungal activity MIC: 2 µg/mL
[16]
  Antifungal activity MIC: 8 µg/mL
[17]
  Antifungal activity MIC: 1 µg/mL
[18]
  Antifungal activity MIC: 4 µg/mL
[19]
  Antifungal activity MIC: 4 µg/mL
Candida krusei DSM 6128
  Antifungal activity MIC: 8 µg/mL
[20]
  Antifungal activity IC50: 2.75 µg/mL
  Antifungal activity MIC: 4 µg/mL
[21]
  Antifungal activity MIC: 8 µg/mL
[22]
  Antifungal activity MIC: 4 µg/mL
Human erythrocytes
  Hemotoxi EH50: >100 µg/mL

## N-(L-N,N-dimethylphenylalanyl)amphotericin B [Compound A43]
LLC-PK1 cells
  IC50 (cytotoxic activity): >100 µg/mL
CCRF-CEM cells
  IC50 (cytotoxic activity): >100 µg/mL
HepG2 cells
  IC50 (cytotoxic activity): >100 µg/mL
[1]
  Antifungal activity MIC: 4 µg/mL
Candida arborea KKP 319
  Antifungal activity MIC: 8 µg/mL
[2]
  Antifungal activity MIC: 1 µg/mL
[3]
  Antifungal activity MIC: 1 µg/mL
[4]
  Antifungal activity MIC: 1 µg/mL
[5]
  Antifungal activity MIC: 1 µg/mL
[6]
  Antifungal activity MIC: 1 µg/mL
Candida albicans SC 5314
  Antifungal activity MIC: 1 µg/mL
[7]
  Antifungal activity MIC: 2 µg/mL
[8]
  Antifungal activity MIC: 1 µg/mL
[9]
  Antifungal activity MIC: 0.5 µg/mL
[10]
  Antifungal activity MIC: 1 µg/mL
[11]
  Antifungal activity MIC: 4 µg/mL
[12]
  Antifungal activity MIC: 2 µg/mL
[13]
  Antifungal activity MIC: 0.5 µg/mL
[14]
  Antifungal activity MIC: 1 µg/mL
[15]
  Antifungal activity MIC: 1 µg/mL
[16]
  Antifungal activity MIC: 1 µg/mL
[17]
  Antifungal activity MIC: 4 µg/mL
[18]
  Antifungal activity MIC: 4 µg/mL
[19]
  Antifungal activity MIC: 2 µg/mL
Candida krusei DSM 6128
  Antifungal activity MIC: 4 µg/mL
[20]
  Antifungal activity IC50: 1.43 µg/mL
  Antifungal activity MIC: 4 µg/mL
[21]
  Antifungal activity MIC: 4 µg/mL
[22]
  Antifungal activity MIC: 4 µg/mL
Human erythrocytes
  Hemotoxi EH50: >100 µg/mL
